Measured values reported in patent US10842806B2, “Methods for treating ocular inflammatory disorders” (Massachusetts Eye and Ear Infirmary, priority 2011, dated 2020).

Test system: WT BMDCs
Assay: BMDC maturation with AICAR plus adenosine kinase inhibitor or nucleoside transporter inhibitor
Assay type: cell-based, mice
Settings: CD40, CD80, CD86, I-A^b by FACS
Description: FIG. 15 depicts the combined effect of AICAR and a nucleoside transporter or an adenosine kinase inhibitor on BMDC maturation. WT BMDCs were stimulated with LPS and 1 mM AICAR in the presence or absence of 0.1 mM IODO or 1 μM DPY. The number of CD11c-gated CD40, CD80, CD86 and I-A^b positive cells was measured by FACS. Bars represent mean±SD from three independent experiments. BMDCs were generated as previously described (Wang et al. (2005) IMMUNOL. LETT. 98:123-130). Briefly, bone marrow was flushed from the femurs and tibias of naive mice (6 to 8-week-old WT or AMPKα1 KO mice). The red blood cells were lysed using Red Blood Cell Lysing Buffer (Sigma). Approximately 2×10^6 cells were cultured in complete medium (RPMI 1640 medium containing 10% FBS, […], 10 mM HEPES [pH 7.4], 2 mM glutamine, 100 U/ml penicillin, and […]) including 10 ng/ml GM-CSF (Pepro Tech, London, England). Fresh media was added to the cells on day 4 of culture, and nonadherent cells and loosely adherent cells were collected as immature DCs on day 7. Immature DCs were stimulated with 100 ng/ml LPS (Salmonella typhimurium; Sigma) for 24 hours to obtain mature DCs. In some experiments, AICAR was added to the culture. […] To further study AICAR's suppressive effect, an adenosine kinase inhibitor (IODO) was used to inhibit AICAR conversion to ZMP. […]

Structure (SMILES)	Effect on AICAR-mediated suppression of co-stimulatory molecule expression (1 μM DPY with LPS and 1 mM AICAR)	Effect on downregulation of co-stimulatory molecule expression by AICAR (0.1 mM IODO with LPS and 1 mM AICAR)
OCCN(CCO)c1nc(N2CCCCC2)c2nc(N(CCO)CCO)nc(N3CCCCC3)c2n1 [DPY]	reversed	
Nc1ncnc2c1c(I)cn2[C@@H]1O[C@H](CO)[C@@H](O)[C@H]1O [IODO]		did not affect
